How the values were obtained:
[1] = biological target: Protein kinase C beta type (Homo sapiens) (UniProt P05771); assay: Inhibition of human truncated PKC beta1 expressed in baculovirus assessed as substrate phosphorylation using fluorescence-labelled peptides as substrate at 8 uM after 90 mins by microfluidic peptide phosphorylation assay
[2] = biological target: Tyrosine-protein kinase BTK (Homo sapiens) (UniProt Q06187); assay: Inhibition of human full length BTK expressed in baculovirus assessed as substrate phosphorylation using fluorescence-labelled peptides as substrate at 8 uM after 90 mins by microfluidic peptide phosphorylation assay
[3] = biological target: T1, Serine/threonine-protein kinase BRSK2 (Homo sapiens) (UniProt Q8IWQ3); assay: Inhibition of human truncated BRSK2 expressed in baculovirus assessed as substrate phosphorylation using fluorescence-labelled peptides as substrate at 8 uM after 90 mins by microfluidic peptide phosphorylation assay
T1 sequence (whole entry): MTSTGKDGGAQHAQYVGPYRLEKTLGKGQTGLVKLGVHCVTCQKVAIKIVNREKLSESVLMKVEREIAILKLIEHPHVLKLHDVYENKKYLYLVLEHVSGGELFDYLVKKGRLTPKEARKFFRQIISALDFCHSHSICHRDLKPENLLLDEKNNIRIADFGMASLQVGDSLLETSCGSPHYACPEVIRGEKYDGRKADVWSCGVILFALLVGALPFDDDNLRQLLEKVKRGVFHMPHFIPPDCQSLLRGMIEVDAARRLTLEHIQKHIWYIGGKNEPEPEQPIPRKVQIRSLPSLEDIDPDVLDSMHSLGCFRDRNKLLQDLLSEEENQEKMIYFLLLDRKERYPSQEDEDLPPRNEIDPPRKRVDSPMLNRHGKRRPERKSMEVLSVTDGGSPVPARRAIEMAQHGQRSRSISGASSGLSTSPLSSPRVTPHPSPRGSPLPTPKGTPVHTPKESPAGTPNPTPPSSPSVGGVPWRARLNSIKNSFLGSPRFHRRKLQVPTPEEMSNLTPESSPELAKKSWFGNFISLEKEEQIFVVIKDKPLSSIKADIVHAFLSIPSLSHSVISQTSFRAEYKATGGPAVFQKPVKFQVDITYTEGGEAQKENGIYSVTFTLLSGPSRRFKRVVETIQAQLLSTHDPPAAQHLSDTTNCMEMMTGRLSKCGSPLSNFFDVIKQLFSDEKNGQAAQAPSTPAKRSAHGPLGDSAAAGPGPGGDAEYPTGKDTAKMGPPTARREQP

[4] = biological target: Tyrosine-protein kinase Lyn (Homo sapiens) (UniProt P07948); assay: Inhibition of human full length LYN expressed in baculovirus assessed as substrate phosphorylation using fluorescence-labelled peptides as substrate at 8 uM after 90 mins by microfluidic peptide phosphorylation assay
[5] = biological target: Fibroblast growth factor receptor 4 (Homo sapiens) (UniProt P22455); assay: Inhibition of human FGFR4 catalytic domain expressed in baculovirus assessed as substrate phosphorylation using fluorescence-labelled peptides as substrate at 0.06 uM after 90 mins by microfluidic peptide phosphorylation assay
[6] = biological target: Fibroblast growth factor receptor 4 (Homo sapiens) (UniProt P22455); assay: Inhibition of human FGFR4 catalytic domain expressed in baculovirus assessed as substrate phosphorylation using fluorescence-labelled peptides as substrate at 0.2 uM after 90 mins by microfluidic peptide phosphorylation assay
[7] = biological target: T2, Interleukin-1 receptor-associated kinase 4 (Homo sapiens) (UniProt Q9NWZ3); assay: Inhibition of human IRAK4 catalytic domain expressed in baculovirus assessed as substrate phosphorylation using fluorescence-labelled peptides as substrate at 2 uM after 90 mins by microfluidic peptide phosphorylation assay
T2 sequence (whole entry): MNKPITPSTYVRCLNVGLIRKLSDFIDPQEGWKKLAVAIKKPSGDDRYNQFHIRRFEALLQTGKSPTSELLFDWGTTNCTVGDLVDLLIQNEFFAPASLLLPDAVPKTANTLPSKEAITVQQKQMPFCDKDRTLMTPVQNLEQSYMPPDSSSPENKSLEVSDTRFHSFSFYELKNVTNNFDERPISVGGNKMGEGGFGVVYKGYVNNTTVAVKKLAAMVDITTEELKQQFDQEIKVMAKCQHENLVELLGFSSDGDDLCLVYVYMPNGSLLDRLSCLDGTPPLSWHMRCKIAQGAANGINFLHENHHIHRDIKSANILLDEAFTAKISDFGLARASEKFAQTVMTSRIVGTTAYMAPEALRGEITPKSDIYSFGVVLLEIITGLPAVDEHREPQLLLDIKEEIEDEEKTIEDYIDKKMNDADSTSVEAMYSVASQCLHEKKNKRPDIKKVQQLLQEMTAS

[8] = biological target: MAP kinase p38 (Homo sapiens) (UniProt O15264+Q15759+Q16539+P53778); assay: Inhibition of human full length p38 beta2 expressed in Escherichia coli cell assessed as substrate phosphorylation using fluorescence-labelled peptides as substrate at 2 uM after 90 mins by microfluidic peptide phosphorylation assay
[9] = biological target: Protein kinase C beta type (Homo sapiens) (UniProt P05771); assay: Inhibition of human truncated PKC beta1 expressed in baculovirus assessed as substrate phosphorylation using fluorescence-labelled peptides as substrate at 9 uM after 90 mins by microfluidic peptide phosphorylation assay
[10] = biological target: Ribosomal protein S6 kinase alpha-5 (Homo sapiens) (UniProt O75582); assay: Inhibition of human full length MSK1 expressed in baculovirus assessed as substrate phosphorylation using fluorescence-labelled peptides as substrate at 9 uM after 90 mins by microfluidic peptide phosphorylation assay
[11] = biological target: Proto-oncogene tyrosine-protein kinase Src (Homo sapiens) (UniProt P12931); assay: Inhibition of human full length SRC expressed in baculovirus assessed as substrate phosphorylation using fluorescence-labelled peptides as substrate at 0.1 uM after 90 mins by microfluidic peptide phosphorylation assay
[12] = biological target: Mitogen-activated protein kinase 14 (Homo sapiens) (UniProt Q16539); assay: Inhibition of human truncated p38 alpha expressed in Escherichia coli cell assessed as substrate phosphorylation using fluorescence-labelled peptides as substrate at 95 uM after 90 mins by microfluidic peptide phosphorylation assay
[13] = biological target: Hepatocyte growth factor receptor (Homo sapiens) (UniProt P08581); assay: Inhibition of human MET cytoplasmic domain expressed in baculovirus assessed as substrate phosphorylation using fluorescence-labelled peptides as substrate at 95 uM after 90 mins by microfluidic peptide phosphorylation assay
[14] = biological target: Proto-oncogene tyrosine-protein kinase Src (Homo sapiens) (UniProt P12931); assay: Inhibition of human full length SRC expressed in baculovirus assessed as substrate phosphorylation using fluorescence-labelled peptides as substrate at 95 uM after 90 mins by microfluidic peptide phosphorylation assay
[15] = biological target: Ribosomal protein S6 kinase alpha-1 (Homo sapiens) (UniProt Q15418); assay: Inhibition of human full length RSK1 expressed in baculovirus assessed as substrate phosphorylation using fluorescence-labelled peptides as substrate at 1000 uM after 90 mins by microfluidic peptide phosphorylation assay
[16] = biological target: Insulin receptor (Homo sapiens) (UniProt P06213); assay: Inhibition of human INSR catalytic domain expressed in baculovirus assessed as substrate phosphorylation using fluorescence-labelled peptides as substrate at 1000 uM after 90 mins by microfluidic peptide phosphorylation assay
[17] = biological target: Casein kinase I isoform alpha (Homo sapiens) (UniProt P48729); assay: Inhibition of human full length CSNK1A1 expressed in baculovirus assessed as substrate phosphorylation using fluorescence-labelled peptides as substrate at 70 uM after 90 mins by microfluidic peptide phosphorylation assay
Sequence of Casein kinase I isoform alpha (Homo sapiens) (P48729 2-337 limits assumed): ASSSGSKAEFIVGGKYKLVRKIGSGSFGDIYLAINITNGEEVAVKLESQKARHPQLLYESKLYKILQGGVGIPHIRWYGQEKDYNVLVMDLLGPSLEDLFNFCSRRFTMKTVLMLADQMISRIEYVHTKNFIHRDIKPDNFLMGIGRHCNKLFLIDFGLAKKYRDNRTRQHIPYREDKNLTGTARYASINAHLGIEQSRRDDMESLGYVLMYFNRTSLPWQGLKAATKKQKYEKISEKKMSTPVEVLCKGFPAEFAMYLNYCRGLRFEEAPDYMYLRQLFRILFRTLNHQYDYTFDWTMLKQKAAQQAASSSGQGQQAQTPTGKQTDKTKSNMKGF

Sequence of Fibroblast growth factor receptor 4 (Homo sapiens) (P22455 22-802 limits assumed): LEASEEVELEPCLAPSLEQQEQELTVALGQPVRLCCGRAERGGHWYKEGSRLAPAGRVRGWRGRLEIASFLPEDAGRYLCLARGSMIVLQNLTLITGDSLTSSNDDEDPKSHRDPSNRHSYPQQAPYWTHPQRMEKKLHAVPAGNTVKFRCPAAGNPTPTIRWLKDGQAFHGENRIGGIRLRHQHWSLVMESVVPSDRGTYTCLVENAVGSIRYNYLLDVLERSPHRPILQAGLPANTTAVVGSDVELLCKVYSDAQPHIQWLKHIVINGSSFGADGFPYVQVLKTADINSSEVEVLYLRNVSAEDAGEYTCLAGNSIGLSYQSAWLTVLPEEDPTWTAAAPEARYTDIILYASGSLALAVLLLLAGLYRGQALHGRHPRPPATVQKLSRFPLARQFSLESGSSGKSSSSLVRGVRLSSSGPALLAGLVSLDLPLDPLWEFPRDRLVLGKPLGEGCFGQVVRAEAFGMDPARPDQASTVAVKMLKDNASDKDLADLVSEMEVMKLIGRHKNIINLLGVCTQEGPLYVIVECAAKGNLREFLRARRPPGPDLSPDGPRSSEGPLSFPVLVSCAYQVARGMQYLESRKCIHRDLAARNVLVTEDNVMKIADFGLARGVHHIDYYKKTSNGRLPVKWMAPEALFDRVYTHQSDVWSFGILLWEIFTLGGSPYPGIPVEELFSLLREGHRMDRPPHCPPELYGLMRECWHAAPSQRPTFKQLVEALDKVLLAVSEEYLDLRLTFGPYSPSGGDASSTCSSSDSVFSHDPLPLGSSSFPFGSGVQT
Sequence of Protein kinase C beta type (Homo sapiens) (P05771 2-671 limits assumed): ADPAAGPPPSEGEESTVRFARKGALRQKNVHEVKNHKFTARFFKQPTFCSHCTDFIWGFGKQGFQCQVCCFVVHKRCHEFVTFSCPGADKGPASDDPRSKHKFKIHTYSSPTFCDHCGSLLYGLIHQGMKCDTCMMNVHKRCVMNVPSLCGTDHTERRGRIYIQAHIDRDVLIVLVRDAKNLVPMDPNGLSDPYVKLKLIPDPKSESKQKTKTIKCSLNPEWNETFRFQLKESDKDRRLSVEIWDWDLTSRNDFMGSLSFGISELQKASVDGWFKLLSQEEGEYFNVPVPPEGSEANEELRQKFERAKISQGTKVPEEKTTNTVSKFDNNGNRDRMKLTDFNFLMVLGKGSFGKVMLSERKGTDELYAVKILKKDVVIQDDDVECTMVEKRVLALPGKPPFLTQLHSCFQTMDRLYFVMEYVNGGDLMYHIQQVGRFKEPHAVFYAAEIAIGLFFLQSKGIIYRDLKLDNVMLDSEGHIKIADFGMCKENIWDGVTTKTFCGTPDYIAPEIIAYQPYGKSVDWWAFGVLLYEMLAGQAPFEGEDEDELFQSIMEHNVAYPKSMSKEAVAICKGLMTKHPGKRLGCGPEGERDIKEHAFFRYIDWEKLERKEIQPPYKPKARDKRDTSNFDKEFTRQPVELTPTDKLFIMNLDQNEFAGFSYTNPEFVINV
Sequence of Proto-oncogene tyrosine-protein kinase Src (Homo sapiens) (P12931 2-536 limits assumed): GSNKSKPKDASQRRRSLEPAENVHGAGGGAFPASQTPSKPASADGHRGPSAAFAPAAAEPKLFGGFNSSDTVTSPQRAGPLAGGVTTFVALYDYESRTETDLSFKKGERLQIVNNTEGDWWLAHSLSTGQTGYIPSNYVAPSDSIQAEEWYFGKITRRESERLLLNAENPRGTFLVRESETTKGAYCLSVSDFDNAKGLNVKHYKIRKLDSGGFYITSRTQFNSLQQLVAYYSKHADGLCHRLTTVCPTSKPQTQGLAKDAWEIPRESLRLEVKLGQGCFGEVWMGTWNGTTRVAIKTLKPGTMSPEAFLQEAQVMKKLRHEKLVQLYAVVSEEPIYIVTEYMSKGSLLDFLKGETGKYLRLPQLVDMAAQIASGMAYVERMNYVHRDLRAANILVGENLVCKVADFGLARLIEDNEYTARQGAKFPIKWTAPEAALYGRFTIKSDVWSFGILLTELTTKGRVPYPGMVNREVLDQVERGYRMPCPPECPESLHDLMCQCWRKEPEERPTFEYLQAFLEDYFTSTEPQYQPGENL
Sequence of Ribosomal protein S6 kinase alpha-1 (Homo sapiens) (Q15418 whole entry, the tested form may be a part): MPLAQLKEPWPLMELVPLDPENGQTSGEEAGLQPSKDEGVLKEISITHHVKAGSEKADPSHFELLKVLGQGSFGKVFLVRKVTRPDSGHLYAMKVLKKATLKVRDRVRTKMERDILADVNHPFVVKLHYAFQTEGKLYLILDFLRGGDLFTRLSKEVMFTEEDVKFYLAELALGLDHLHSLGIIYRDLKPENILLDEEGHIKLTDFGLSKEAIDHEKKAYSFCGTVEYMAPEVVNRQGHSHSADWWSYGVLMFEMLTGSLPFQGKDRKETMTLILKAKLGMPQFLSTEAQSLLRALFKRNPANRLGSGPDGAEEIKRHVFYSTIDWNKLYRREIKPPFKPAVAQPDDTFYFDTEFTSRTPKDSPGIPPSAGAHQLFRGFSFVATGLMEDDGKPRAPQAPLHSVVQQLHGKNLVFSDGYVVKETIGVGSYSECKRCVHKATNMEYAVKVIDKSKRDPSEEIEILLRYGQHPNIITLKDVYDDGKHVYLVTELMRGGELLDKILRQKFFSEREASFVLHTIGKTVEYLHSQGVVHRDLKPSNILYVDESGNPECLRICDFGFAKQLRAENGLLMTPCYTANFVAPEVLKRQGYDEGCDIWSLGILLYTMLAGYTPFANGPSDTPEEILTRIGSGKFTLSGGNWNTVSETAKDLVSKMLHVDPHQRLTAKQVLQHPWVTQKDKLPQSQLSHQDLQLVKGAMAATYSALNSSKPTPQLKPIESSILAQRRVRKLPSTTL
Sequence of Hepatocyte growth factor receptor (Homo sapiens) (P08581 whole entry, the tested form may be a part): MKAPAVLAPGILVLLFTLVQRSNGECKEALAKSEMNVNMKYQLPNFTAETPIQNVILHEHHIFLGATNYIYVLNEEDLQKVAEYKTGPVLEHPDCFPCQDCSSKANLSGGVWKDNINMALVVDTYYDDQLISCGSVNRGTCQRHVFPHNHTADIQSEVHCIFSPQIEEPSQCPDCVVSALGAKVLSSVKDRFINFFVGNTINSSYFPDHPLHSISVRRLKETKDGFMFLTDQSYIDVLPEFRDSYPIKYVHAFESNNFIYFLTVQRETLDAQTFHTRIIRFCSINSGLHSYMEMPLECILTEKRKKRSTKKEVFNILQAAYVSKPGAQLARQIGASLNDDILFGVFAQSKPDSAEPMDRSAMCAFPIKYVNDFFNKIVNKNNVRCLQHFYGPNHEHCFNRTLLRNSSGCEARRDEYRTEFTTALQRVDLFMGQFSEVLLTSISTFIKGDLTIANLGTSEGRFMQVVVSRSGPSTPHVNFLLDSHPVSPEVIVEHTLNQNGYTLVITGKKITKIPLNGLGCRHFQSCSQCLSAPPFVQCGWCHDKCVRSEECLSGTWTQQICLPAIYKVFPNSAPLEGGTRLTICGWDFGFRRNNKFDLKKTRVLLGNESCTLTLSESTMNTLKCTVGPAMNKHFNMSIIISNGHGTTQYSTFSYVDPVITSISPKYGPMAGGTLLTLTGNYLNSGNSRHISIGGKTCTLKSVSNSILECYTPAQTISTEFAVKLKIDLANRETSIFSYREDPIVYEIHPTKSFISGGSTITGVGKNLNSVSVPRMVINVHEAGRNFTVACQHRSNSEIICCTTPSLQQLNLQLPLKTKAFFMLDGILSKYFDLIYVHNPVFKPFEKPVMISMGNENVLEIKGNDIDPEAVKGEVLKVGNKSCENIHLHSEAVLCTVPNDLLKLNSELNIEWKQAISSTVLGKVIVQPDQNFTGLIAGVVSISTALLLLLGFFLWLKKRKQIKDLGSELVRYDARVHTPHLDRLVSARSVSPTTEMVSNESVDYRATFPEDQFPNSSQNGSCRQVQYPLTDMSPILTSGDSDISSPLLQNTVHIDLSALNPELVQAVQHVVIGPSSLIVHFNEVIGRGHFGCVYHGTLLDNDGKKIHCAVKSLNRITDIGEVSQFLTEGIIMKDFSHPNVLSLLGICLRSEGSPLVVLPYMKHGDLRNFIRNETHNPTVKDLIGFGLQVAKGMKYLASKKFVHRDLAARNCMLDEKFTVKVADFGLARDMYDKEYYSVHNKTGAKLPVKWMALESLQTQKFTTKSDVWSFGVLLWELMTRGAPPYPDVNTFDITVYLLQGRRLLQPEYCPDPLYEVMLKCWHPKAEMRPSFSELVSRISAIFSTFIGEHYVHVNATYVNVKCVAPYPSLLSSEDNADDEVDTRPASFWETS
Sequence of Mitogen-activated protein kinase 14 (Homo sapiens) (Q16539 whole entry, the tested form may be a part): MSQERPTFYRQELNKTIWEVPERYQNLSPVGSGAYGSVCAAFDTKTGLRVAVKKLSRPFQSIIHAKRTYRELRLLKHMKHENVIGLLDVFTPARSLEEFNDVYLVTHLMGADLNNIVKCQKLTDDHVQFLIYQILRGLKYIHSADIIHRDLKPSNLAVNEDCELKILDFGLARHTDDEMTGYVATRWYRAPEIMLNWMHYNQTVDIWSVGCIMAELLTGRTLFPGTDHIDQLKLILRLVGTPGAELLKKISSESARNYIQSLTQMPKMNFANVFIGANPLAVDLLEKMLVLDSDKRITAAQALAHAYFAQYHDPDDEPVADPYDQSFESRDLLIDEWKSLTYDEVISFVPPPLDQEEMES

With NCC1CCN(c2ncnc3[nH]ccc23)CC1 the inhibition [1] was 50.5%, the inhibition [2] was 4.5% and the inhibition [3] was 56.5%. For the same compound, the inhibition [4] was 51%.
Compound NC1(Cc2ccc(Cl)cc2)CCN(c2ncnc3[nH]ccc23)CC1 has an inhibition [5] of 2%.
For Clc1ccc(C2(c3ccc(-c4ncnc5[nH]cnc45)cc3)CCNCC2)cc1, the inhibition [6] was 1.5%.
Work on NC1CCN(c2ncnc3[nH]ccc23)CC1 yielded an inhibition [7] of 1.5% and an inhibition [8] of 5.5%.
Compound NCC1CN(c2ncnc3[nH]c4cnccc4c23)CCO1 (configuration not stated) has an inhibition [9] of 22.5% and an inhibition [10] of 60%.
With C[C@H](CN(C)C)Oc1nc(Nc2cc3cccc(Cl)c3cn2)cnc1C#N the inhibition [11] was 3%.
Compound NCCc1ccc(-c2ncnc3[nH]cnc23)cc1 has an inhibition [12] of 6.5%, an inhibition [13] of 5.5% and an inhibition [14] of 62%.
Work on c1cnc2[nH]ccc2c1 yielded an inhibition [15] of 60.5% and an inhibition [16] of 29%.
For CNCc1ccc(-c2ncnc3[nH]cnc23)cc1, the inhibition [17] was 45.5%.

From ChEMBL document CHEMBL3132769, “Fragment growing to retain or alter the selectivity of anchored kinase hinge-binding fragments” (Medchemcomm, 2014)
